Key:
Cdk4/CyclinD1 = Cdk4/CyclinD1 (Homo sapiens (Human), UniProt P11802); assay: Cdk4 kinase inhibition assay with recombinant Cdk4/CyclinD1, Rb substrate, [33P]-ATP filter plate; type: biochemical; details: 25 μM ATP, read-out: Cdk 4 IC50
Method in brief: (§1)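 Recombinant Cdk4/CyclinD1 or Cdk6/CyclinD3 phosphorylated Rb protein with [33P]-ATP for 1 h at room temperature. Protein was TCA-precipitated on filter plates and bound radioactivity counted. IC50 by nonlinear regression.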

Cdk6/CyclinD3 = Cdk6/CyclinD3 (Homo sapiens (Human), UniProt Q00534); assay: Cdk6 kinase inhibition assay with recombinant Cdk6/CyclinD3, Rb substrate, [33P]-ATP filter plate; type: biochemical; details: 25 μM ATP, read-out: Cdk 6 IC50
Cdk6/CyclinD3, sequence (Q00534 whole entry): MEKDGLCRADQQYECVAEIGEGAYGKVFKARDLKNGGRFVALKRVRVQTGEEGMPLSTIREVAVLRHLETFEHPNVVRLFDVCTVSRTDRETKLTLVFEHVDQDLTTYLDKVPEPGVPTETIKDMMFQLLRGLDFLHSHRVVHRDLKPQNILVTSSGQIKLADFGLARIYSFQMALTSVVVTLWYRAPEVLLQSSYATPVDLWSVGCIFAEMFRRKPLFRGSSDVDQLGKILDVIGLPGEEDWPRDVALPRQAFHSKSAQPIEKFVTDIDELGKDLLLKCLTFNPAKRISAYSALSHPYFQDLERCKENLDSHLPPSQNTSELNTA
Cdk6/CyclinD3, sequence (P30281 whole entry partner): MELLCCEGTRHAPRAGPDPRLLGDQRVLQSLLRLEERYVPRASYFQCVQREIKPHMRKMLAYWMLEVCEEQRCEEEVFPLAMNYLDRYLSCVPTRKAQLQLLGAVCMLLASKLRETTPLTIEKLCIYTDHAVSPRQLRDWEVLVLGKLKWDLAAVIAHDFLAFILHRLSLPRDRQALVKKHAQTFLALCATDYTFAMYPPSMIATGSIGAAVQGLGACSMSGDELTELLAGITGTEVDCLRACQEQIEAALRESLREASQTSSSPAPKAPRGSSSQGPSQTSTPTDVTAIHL
Method in brief: as §1

Cdk4/CyclinD1, sequence (P11802 whole entry): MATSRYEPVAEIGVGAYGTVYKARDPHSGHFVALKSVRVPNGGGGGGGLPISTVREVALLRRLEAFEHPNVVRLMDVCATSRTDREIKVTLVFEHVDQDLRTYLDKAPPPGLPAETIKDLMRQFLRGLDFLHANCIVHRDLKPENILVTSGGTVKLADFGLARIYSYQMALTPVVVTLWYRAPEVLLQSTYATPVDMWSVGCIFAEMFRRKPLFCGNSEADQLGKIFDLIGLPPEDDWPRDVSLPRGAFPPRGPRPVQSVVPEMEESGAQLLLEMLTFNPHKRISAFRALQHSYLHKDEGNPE
Cdk4/CyclinD1, sequence (P24385 whole entry partner): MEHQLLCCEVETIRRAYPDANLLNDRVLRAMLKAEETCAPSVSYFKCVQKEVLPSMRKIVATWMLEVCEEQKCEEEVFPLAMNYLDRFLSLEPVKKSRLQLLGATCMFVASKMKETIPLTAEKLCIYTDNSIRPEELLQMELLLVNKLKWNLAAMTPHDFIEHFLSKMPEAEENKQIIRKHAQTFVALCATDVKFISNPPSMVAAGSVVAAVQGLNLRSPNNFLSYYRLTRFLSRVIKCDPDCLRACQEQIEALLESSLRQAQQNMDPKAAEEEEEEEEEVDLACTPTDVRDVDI

CC[C@@H](C)n1c2cnccc2c2cnc(Nc3ccc(N4CCN[C@@H](C)C4)cn3)nc21 [Example 321]
IC50 (Cdk4/CyclinD1): 7 nM
IC50 (Cdk6/CyclinD3): 11 nM

NC1[C@H]2CN(c3ccc(Nc4ncc5c6ccncc6n(C6CCCC6)c5n4)nn3)C[C@@H]12 (stereo partly drawn) [Example 272, N-(6-((1R,5S)-6-amino-3-azabicyclo[310]hex-3-yl)-3-pyridazinyl)-9-cyclopentyl-9H-pyrido[4′,3′:4,5]pyrrolo[2,3-d]pyrimidin-2-amine]
IC50 (Cdk4/CyclinD1): 27 nM
IC50 (Cdk6/CyclinD3): 101 nM

OCCCn1c2cnccc2c2cnc(Nc3ccc(N4CCNCC4)nn3)nc21 [Example 352]
IC50 (Cdk4/CyclinD1): 146 nM
IC50 (Cdk6/CyclinD3): 53 nM

c1cc2c3cnc(Nc4ccc(N5CCNCC5)cn4)nc3n(C3CC4CCC3C4)c2cn1 (stereo not drawn) [Example 24, (9-Bicyclo[2.2.1]hept-2-yl-9H-pyrido[4′,3′:4,5]pyrrolo[2,3-d]pyrimidin-2-yl)-(5-piperazin-1-yl-pyridin-2-yl)-amine]
IC50 (Cdk4/CyclinD1): 0.94 nM
IC50 (Cdk6/CyclinD3): 5.1 nM

COc1ccc2c3cnc(Nc4ccc(N5CCNCC5)cn4)nc3n(C3CCCC3)c2n1 [Example 182, 9-Cyclopentyl-7-methoxy-N-(5-(1-piperazinyl)-2-pyridinyl)-9H-pyrido[3′,2′:4,5]pyrrolo[2,3-d]pyrimidin-2-amine]
IC50 (Cdk4/CyclinD1): 113 nM
IC50 (Cdk6/CyclinD3): 16 nM

OCCNC1CCN(c2ccc(Nc3ncc4c5ccncc5n(C5CCCC5)c4n3)nc2)CC1 [Example 458]
IC50 (Cdk4/CyclinD1): 4.8 nM
IC50 (Cdk6/CyclinD3): 5.1 nM

C[C@@H]1CN(c2ccc(Nc3ncc4c5ccncc5n(C5CCCC5)c4n3)nn2)CCN1 [Example 4]
IC50 (Cdk4/CyclinD1): 3.9 nM
IC50 (Cdk6/CyclinD3): 11.5 nM

c1cnc2c(c1)c1cnc(Nc3ccc(N4CCNCC4)cn3)nc1n2C1CCCC1 [Example 35, (9-Cyclopentyl-9H-pyrido[3′,2′:4,5]pyrrolo[2,3-d]pyrimidin-2-yl)-(5-piperazin-1-yl-pyridin-2-yl)-amine]
IC50 (Cdk4/CyclinD1): 8.2 nM
IC50 (Cdk6/CyclinD3): 21 nM

c1cc2c3cnc(Nc4ccc(N5CCNCC5)nc4)nc3n(C3CCCC3)c2cn1 [Example 7, 9-cyclopentyl-N-(6-(1-piperazinyl)-3-pyridinyl)-9H-pyrido[4′,3′:4,5]pyrrolo[2,3-d]pyrimidin-2-amine]
IC50 (Cdk4/CyclinD1): 1.4 nM
IC50 (Cdk6/CyclinD3): 1.3 nM

COC(=O)CNC1CCN(c2ccc(Nc3ncc4c5ccncc5n(C5CCCC5)c4n3)nc2)CC1 [Example 472]
IC50 (Cdk4/CyclinD1): 24 nM
IC50 (Cdk6/CyclinD3): 34 nM

CC1CN(c2ccc(Nc3ncc4c5ccnc(F)c5n(C5CCCC5)c4n3)nc2)CC(C)N1 (stereo not drawn) [Example 189, 9-Cyclopentyl-N-(5-(3,5-dimethyl-1-piperazinyl)-2-pyridinyl)-8-fluoro-9H-pyrido[4′,3′:4,5]pyrrolo[2,3-d]pyrimidin-2-amine]
IC50 (Cdk4/CyclinD1): 20 nM
IC50 (Cdk6/CyclinD3): 22 nM

C[C@@H](CO)NC1CCN(c2ccc(Nc3ncc4c5ccncc5n(C5CCCC5)c4n3)nn2)CC1 [Example 442]
IC50 (Cdk4/CyclinD1): 1.5 nM
IC50 (Cdk6/CyclinD3): 13 nM

Cn1c(=O)ccc2c3cnc(Nc4ccc(N5CCNCC5)cn4)nc3n(C3CCCC3)c21 [Example 184, 9-Cyclopentyl-8-methyl-2-((5-(1-piperazinyl)-2-pyridinyl)amino)-8,9-dihydro-7H-pyrido[3′,2′:4,5]pyrrolo[2,3-d]pyrimidin-7-one]
IC50 (Cdk4/CyclinD1): 8.6 nM
IC50 (Cdk6/CyclinD3): 31 nM

CC[C@@H](C)n1c2cnccc2c2cnc(Nc3ccc(N4CCC(NC)CC4)nn3)nc21 [Example 318]
IC50 (Cdk4/CyclinD1): 2.9 nM
IC50 (Cdk6/CyclinD3): 27 nM

c1ccc2c(c1)c1cnc(Nc3ccc(N4CCNCC4)cn3)nc1n2C1CCCC1 [Example 37, (9-Cyclopentyl-9H-pyrimido[4,5-b]indol-2-yl)-(5-piperazin-1-yl-pyridin-2-yl)-amine]
IC50 (Cdk4/CyclinD1): 4.3 nM
IC50 (Cdk6/CyclinD3): 1.2 nM

CC1(C)CN(c2ccc(Nc3ncc4c5ccncc5n(C5CCC5)c4n3)nc2)CCN1 [Example 343]
IC50 (Cdk4/CyclinD1): 44 nM
IC50 (Cdk6/CyclinD3): 28 nM

CCC(CC)n1c2cnccc2c2cnc(Nc3ccc(N4CCNCC4)cn3)nc21 [Example 161, 9-(1-Ethylpropyl)-N-(5-(1-piperazinyl)-2-pyridinyl)-9H-pyrido[4′,3′:4,5]pyrrolo[2,3-d]pyrimidin-2-amine]
IC50 (Cdk4/CyclinD1): 3.6 nM
IC50 (Cdk6/CyclinD3): 16 nM

O[C@@H]1CCN(C2CCN(c3ccc(Nc4ncc5c6ccncc6n(C6CCCC6)c5n4)nn3)CC2)C1 [Example 449]
IC50 (Cdk4/CyclinD1): 12 nM
IC50 (Cdk6/CyclinD3): 36 nM

c1cc2c3cnc(Nc4ccc(N5CCCNCC5)cn4)nc3n(C3CCCC3)c2cn1 [Example 48, 9-cyclopentyl-N-(5-(1,4-diazepan-1-yl)-2-pyridinyl)-9H-pyrido[4′,3′:4,5]pyrrolo[2,3-d]pyrimidin-2-amine]
IC50 (Cdk4/CyclinD1): 1.6 nM
IC50 (Cdk6/CyclinD3): 5.6 nM

c1cc2c3cnc(Nc4ccc(C5CCNCC5)cn4)nc3n(C3CCCC3)c2cn1 [Example 257, 9-cyclopentyl-N-(5-(4-piperidinyl)-2-pyridinyl)-9H-pyrido[4′,3′:4,5]pyrrolo[2,3-d]pyrimidin-2-amine]
IC50 (Cdk4/CyclinD1): 7 nM
IC50 (Cdk6/CyclinD3): 5.3 nM

N#Cc1ccc2c3cnc(Nc4ccc(N5CCNCC5)cn4)nc3n(C3CCCC3)c2c1 [Example 41, 9-Cyclopentyl-2-(5-piperazin-1-yl-pyridin-2-ylamino)-9H-pyrimido[4,5-b]indole-7-carbonitrile]
IC50 (Cdk4/CyclinD1): 2.7 nM
IC50 (Cdk6/CyclinD3): 7.2 nM

OC1CCCN(Cc2ccc(Nc3ncc4c5ccncc5n(C5CCCC5)c4n3)nc2)C1 (stereo not drawn) [Example 216, 1-((6-((9-cyclopentyl-9H-pyrido[4′,3′:4,5]pyrrolo[2,3-d]pyrimidin-2-yl)amino)-3-pyridinyl)methyl)-3-piperidinol]
IC50 (Cdk4/CyclinD1): 10 nM
IC50 (Cdk6/CyclinD3): 15 nM

O[C@@H]1CCC[C@@H]1n1c2cnccc2c2cnc(Nc3ccc(N4CCNCC4)cn3)nc21 [Example 361]
IC50 (Cdk4/CyclinD1): 44 nM
IC50 (Cdk6/CyclinD3): 58 nM

O[C@H]1CCN(c2ccc(Nc3ncc4c5ccncc5n(C5CCCC5)c4n3)nn2)C1 [Example 19, (S)-9-cyclopentyl-N-(6-(3-hydroxypyrrolidin-1-yl)-3-pyridazinyl)-9H-pyrido[4′,3′:4,5]-pyrrolo[2,3d]pyrimidin-2-amine]
IC50 (Cdk4/CyclinD1): 4 nM
IC50 (Cdk6/CyclinD3): 10 nM

OCCCNC1CCN(c2ccc(Nc3ncc4c5ccncc5n(C5CCCC5)c4n3)nn2)CC1 [Example 453]
IC50 (Cdk4/CyclinD1): 4.6 nM
IC50 (Cdk6/CyclinD3): 13 nM

c1cc2c3cnc(Nc4ccc(N5CCCC5)nn4)nc3n(C3CCCC3)c2cn1 [Example 111]
IC50 (Cdk4/CyclinD1): 4.4 nM
IC50 (Cdk6/CyclinD3): 19.7 nM

CN(CC(=O)O)C1CCN(c2ccc(Nc3ncc4c5ccncc5n(C5CCCC5)c4n3)nc2)CC1 [Example 471]
IC50 (Cdk4/CyclinD1): 4.1 nM
IC50 (Cdk6/CyclinD3): 18 nM

O[C@H]1CCN(C2CCN(c3ccc(Nc4ncc5c6ccncc6n(C6CCCC6)c5n4)nc3)CC2)C1 [Example 462]
IC50 (Cdk4/CyclinD1): 340 nM
IC50 (Cdk6/CyclinD3): 350 nM

N[C@@H]1CCN(c2ccc(Nc3ncc4c5ccncc5n(C5CCCC5)c4n3)nn2)C1 [Example 109]
IC50 (Cdk4/CyclinD1): 1.9 nM
IC50 (Cdk6/CyclinD3): 11 nM

COCCn1c2cnccc2c2cnc(Nc3ccc(N4CCNCC4)nn3)nc21 [Example 313]
IC50 (Cdk4/CyclinD1): 340 nM
IC50 (Cdk6/CyclinD3): 400 nM

C[C@@H](CO)n1c2cnccc2c2cnc(Nc3ccc(N4CCNCC4)cn3)nc21 [Example 369]
IC50 (Cdk4/CyclinD1): 45 nM
IC50 (Cdk6/CyclinD3): 29 nM

c1cc2c3cnc(Nc4ccc(N[C@@H]5CCNC5)cn4)nc3n(C3CCCC3)c2cn1 [Example 63]
IC50 (Cdk4/CyclinD1): 3.4 nM
IC50 (Cdk6/CyclinD3): 20 nM

C[C@H](CO)NC1CCN(c2ccc(Nc3ncc4c5ccncc5n(C5CCCC5)c4n3)nc2)CC1 [Example 436, (2R)-2-((1-(6-((9-cyclopentyl-9H-pyrido[4′,3′:4,5]pyrrolo[2,3-d]pyrimidin-2-yl)amino)-3-pyridinyl)-4-piperidinyl)amino)-1-propanol]
IC50 (Cdk4/CyclinD1): 13 nM
IC50 (Cdk6/CyclinD3): 5.1 nM

C[C@H](CO)Nc1ccc(Nc2ncc3c4ccncc4n(C4CCCC4)c3n2)nn1 [Example 295]
IC50 (Cdk4/CyclinD1): 6.8 nM
IC50 (Cdk6/CyclinD3): 33.7 nM

O=C(c1ccc(Nc2ncc3c4ccncc4n(C4CCCC4)c3n2)nc1)N1CCNCC1 [Example 221, 9-cyclopentyl-N-(5-(1-piperazinylcarbonyl)-2-pyridinyl)-9H-pyrido[4′,3′:4,5]pyrrolo[2,3-d]pyrimidin-2-amine]
IC50 (Cdk4/CyclinD1): 1.4 nM
IC50 (Cdk6/CyclinD3): 8 nM

O=S1(=O)CCC(c2ccc(Nc3ncc4c5ccncc5n(C5CCCC5)c4n3)nc2)CC1 [Example 270, 9-Cyclopentyl-N-(5-(1,1-dioxidotetrahydro-2H-thiopyran-4-yl)-2-pyridinyl)-9H-pyrido[4′,3′:4,5]pyrrolo[2,3-d]pyrimidin-2-amine]
IC50 (Cdk4/CyclinD1): 40 nM
IC50 (Cdk6/CyclinD3): 35 nM

Cc1cc(N2CCNCC2)cnc1Nc1ncc2c3ccncc3n(C3CCCC3)c2n1 [Example 51, 9-cyclopentyl-N-(3-methyl-5-(1-piperazinyl)-2-pyridinyl)-9H-pyrido[4′,3′:4,5]pyrrolo[2,3-d]pyrimidin-2-amine]
IC50 (Cdk4/CyclinD1): 126 nM
IC50 (Cdk6/CyclinD3): 406 nM

CN(C)CCNC1CCN(c2ccc(Nc3ncc4c5ccncc5n(C5CCCC5)c4n3)nn2)CC1 [Example 480]
IC50 (Cdk4/CyclinD1): 4.9 nM
IC50 (Cdk6/CyclinD3): 10 nM

FC(F)(F)CNC1CCN(c2ccc(Nc3ncc4c5ccncc5n(C5CCCC5)c4n3)nc2)CC1 [Example 470]
IC50 (Cdk4/CyclinD1): 11 nM
IC50 (Cdk6/CyclinD3): 38 nM

CC(C)(CO)Cn1c2cnccc2c2cnc(Nc3ccc(N4CCNCC4)cn3)nc21 [Example 45, 2,2-Dimethyl-3-[2-(5-piperazin-1-yl-pyridin-2-ylamino)-pyrido[4′,3′:4,5]pyrrolo[2,3-d]pyrimidin-9-yl]-propan-1-ol]
IC50 (Cdk4/CyclinD1): 73 nM
IC50 (Cdk6/CyclinD3): 129 nM

CCC(CC)n1c2cnccc2c2cnc(Nc3ccc(N4CC[C@@H](O)C4)nn3)nc21 [Example 162, (3R)-1-(6-((9-(1-Ethylpropyl)-9H-pyrido[4′,3′:4,5]pyrrolo[2,3-d]pyrimidin-2-yl)-amino)-3-pyridazinyl)-3-pyrrolidinol]
IC50 (Cdk4/CyclinD1): 10000 nM
IC50 (Cdk6/CyclinD3): 110 nM

c1cc2c3cnc(Nc4ccc(N5CCNCC5)cn4)nc3n(C3CCCCCC3)c2cn1 [Example 34, (9-Cycloheptyl-9H-pyrido[4′,3′:4,5]pyrrolo[2,3-d]pyrimidin-2-yl)-(5-piperazin-1-yl-pyridin-2-yl)-amine]
IC50 (Cdk4/CyclinD1): 11 nM
IC50 (Cdk6/CyclinD3): 21 nM

Source: US8841312B2, “Fused pyridine, pyrimidine and triazine compounds as cell cycle inhibitors” (Amgen Inc., priority 2007, dated 2014)
